# In US4513009A, “Aminoacid derivatives and their therapeutic applications” (priority 1980, dated 1985):
# Assays:
# [1] = system: mice; test: Subacute toxicity, 3 weeks in mice, with reversibility test; conditions: 50 mg/kg 3 times/day, vs solvent controls
# [2] = system: phenylbenzoquinone-induced pain; test: Phenylbenzoquinone or writhing test; assay type: in vivo; conditions: 0.7 mg/kg i.v.; vs controls p<0.01
# Source text: 3--Phenylbenzoquinone or "writhing test" according to the method of SIEGMUND and co-workers (Proc. Soc. Expert. Biol. Med. 1957, 95, 729-731).
# [3] = molecular target: enkephalinase (enkephalin dipeptidylcarboxypeptidase); test: Determination of enkephalinasic (enkephalin dipeptidylcarboxypeptidasic) activity and effect of inhibitors, striatal membrane fraction, 3H-leucine-enkephalin; assay type: biochemical, rats or mice; conditions: 10 nM leucine-enkephalin 3H, 25° C., pH 7.4, 15 mn, read-out: 50% inhibitory concentration
# Protocol: Determination of the "enkephalinasic" (enkephalin dipeptidylcarboxypeptidasic) activity and determination of the effect of inhibitors.
# The enzyme preparation used is a membrane fraction from the striatum of rats or mice.
# This fraction is obtained by homogenization at 4° C. in 20 volumes Tris-HCl buffer 0.05M (pH 7.4) followed by two successive centrifugations (1000 g×min. and 200,000 g×min.) at the end of which the sediment of the second centrifugation is retained. It is washed by re-suspension in 10 ml of the buffer followed by centrifugation (200,000 g×min) and the resulting sediment is in turn washed superficially to complete the removal of the soluble enzymes. The resulting membrane fraction is taken up into the buffer at 4° C., to obtain a suspension comprising about 1.5 mg proteins per ml.
# An aliquot sample (50 μl) of the membrane suspension is then incubated in a final volume of 100 μl at 25° C. in the presence of 10 nM leucine-enkephalin ^3 H (39 Ci/mmole), previously purified by column chromatography over Porapak Q (100-120 mesh, Waters Assoc.) and […] puromycine, an aminopeptidase inhibitor. Incubation time is generally set at 15 mn. in order to determine the initial rate of the formation of tripeptide Tyr-Gly-Gly-^3 H characteristic of the enkephalin dipeptidylcarboxypeptidasic (enkephalinasic) activity.
# Determination of the radioactivity of the tripeptide is effected by liquid scintillation spectrometry. […]
# [4] = system: mice; conditions: mouse, in vivo
# [5] = system: licking reflex of mice on a plate heated at 55° C.; test: Hot-plate test (55° C.): specific antalgic effect; assay type: in vivo; conditions: intravenous
# Protocol: Licking reflex of mice on a plate heated at 55° C. according to the method of Jacob. and co-workers (Arch. Int. Pharmacodyn. 122, 287-300, 1959: 133, 296-300, 1961).
# (b) Specific antalgic effect
structure (smiles),measurement,setting,value
"CC(=O)SCC(Cc1ccccc1)C(=O)NCC(=O)OCc1ccccc1 (stereo not drawn) [Compound 53, N-[3-Acetylthio-2-benzylpropanoyl]glycine benzyl ester]",weight of the organs and their anatomic-pathologic examination,[1],failed to show any difference with respect to the solvent controls
same,protection from phenylbenzoquinone-induced pain,[2],"protect the treated animals from phenylbenzoquinone-induced pain, with a significant difference with respect to the controls, p<0.01"
same,IC50,[3],380 nM
same,"tolerance, habit-forming and weaning phenomena (reversibility test)",[4],"no sign of tolerance, of habit-forming, and no weaning phenomena could be observed"
same,ED50,"[5]; Mus musculus, hot plate 55° C.",3 mg/kg
same,antalgic effect in the hot (55° C.) plate test,[5],have an antalgic effect
